Test results taken from patent publication US8247211B2, “Glycopeptide antibiotics” (American Cyanamid Company, priority 2001, dated 2012).

What was measured:
Assay in all cases: In vitro antibacterial evaluation: minimum inhibitory concentration (MIC), broth dilution method
Type in all cases: cell-based
Details in all cases: 18 hours at 35° C.
Streptococcus sp. = test system: Streptococcus sp.
Method: (§1) The minimum inhibitory concentration (MIC), the lowest concentration of the antibiotic which inhibits growth of the test organism, is determined by the broth dilution method using Muller-Hinton II […] (Baltimore Biological Laboratories) following the recommendations of the National Committee for Clinical Laboratory Standards [Methods for dilution antimicrobial susceptibility tests for bacteria that grow aerobically, approved standard M7-A2, National Committee for Clinical Laboratory Standards, Villanova, Pa].
(§2) An inoculum level of 5×10^5 CFU/mL, and a range of antibiotic concentrations (64-0.06 μg/mL) is used. […] The test organisms include a spectrum of Gram-positive bacteria comprised of Staphylococcus sp., Streptococcus sp. and Enterococcus sp. These organisms include recent clinical isolates that are resistant to methicillin, penicillin and/or vancomycin.

Escherichia coli = test system: Escherichia coli
Method: as §1, §2

Staphylococcus sp. = test system: Staphylococcus sp.
Method: as §1, §2

Enterococcus sp. = test system: Enterococcus sp.
Method: as §1, §2

Tri-N-[(phenylmethoxy)carbonyl]-cyclo[glycyl-β-methylphenylalanyltyrosyl-3-(2-iminoimidazolidin-4-yl)seryl-3-β-(2,3:4,6-di-O-isopropylidenehexopyranosyl)-2-iminoimidazolidin-4-yl]seryl-O-(tert-butyldimethylsilyl)seryl] [Example 249]
MIC Streptococcus agalactiae (GC 4564) (Streptococcus sp.; Streptococcus agalactiae (GC 4564)): 128 µg/mL | MIC Streptococcus pneumoniae (ATCC 6301) (Streptococcus sp.; Streptococcus pneumoniae (ATCC 6301)): 64 µg/mL | MIC Streptococcus pneumoniae (GC 1894) (Streptococcus sp.; Streptococcus pneumoniae (GC 1894)): 32 µg/mL | MIC Streptococcus pneumoniae (GC 4565) (Streptococcus sp.; Streptococcus pneumoniae (GC 4565)): 64 µg/mL | MIC Streptococcus pyogenes (GC 4563) (Streptococcus sp.; Streptococcus pyogenes (GC 4563)): 128 µg/mL | MIC Streptococcus pneumoniae (ATCC 6301) (Streptococcus sp.; broth dilution, strain ATCC 6301): 64 µg/mL | MIC Streptococcus pneumoniae (GC 1894) (Streptococcus sp.; broth dilution, strain GC 1894): 32 µg/mL | MIC Streptococcus pyogenes (GC 4563) (Streptococcus sp.; broth dilution, strain GC 4563): 128 µg/mL | MIC Streptococcus agalactiae (GC 4564) (Streptococcus sp.; broth dilution, strain GC 4564): 128 µg/mL | MIC Streptococcus pneumoniae (GC 4565) (Streptococcus sp.; broth dilution, strain GC 4565): 64 µg/mL | MIC Escherichia coli (ATCC 25922) (Escherichia coli; Escherichia coli (ATCC 25922)): 128 µg/mL | MIC Escherichia coli (GC 4559) (Escherichia coli; Escherichia coli (GC 4559)): 128 µg/mL | MIC Escherichia coli (GC 4560) (Escherichia coli; Escherichia coli (GC 4560)): 128 µg/mL | MIC Coagulase Negative Staphylococcus (GC 4547) (Staphylococcus sp.; Coagulase Negative Staphylococcus (GC 4547)): 64 µg/mL | MIC Coagulase Negative Staphylococcus (GC 4548) (Staphylococcus sp.; Coagulase Negative Staphylococcus (GC 4548)): 128 µg/mL | MIC Coagulase Negative Staphylococcus (GC 4549) (Staphylococcus sp.; Coagulase Negative Staphylococcus (GC 4549)): 128 µg/mL | MIC Coagulase Negative Staphylococcus (GC 4551) (Staphylococcus sp.; Coagulase Negative Staphylococcus (GC 4551)): 64 µg/mL | MIC Coagulase Negative Staphylococcus (GC 6257) (Staphylococcus sp.; Coagulase Negative Staphylococcus (GC 6257)): 128 µg/mL | MIC Staphylococcus aureus (ATCC 29213) (Staphylococcus sp.; Staphylococcus aureus (ATCC 29213)): 128 µg/mL | MIC Staphylococcus aureus (GC 1131) (Staphylococcus sp.; Staphylococcus aureus (GC 1131)): 128 µg/mL | MIC Staphylococcus aureus (GC 3051) (Staphylococcus sp.; Staphylococcus aureus (GC 3051)): 128 µg/mL | MIC Staphylococcus aureus (GC 3053) (Staphylococcus sp.; Staphylococcus aureus (GC 3053)): 128 µg/mL | MIC Staphylococcus aureus (GC 4541) (Staphylococcus sp.; Staphylococcus aureus (GC 4541)): 128 µg/mL | MIC Staphylococcus aureus (GC 4542) (Staphylococcus sp.; Staphylococcus aureus (GC 4542)): 64 µg/mL | MIC Staphylococcus aureus (GC 4544) (Staphylococcus sp.; Staphylococcus aureus (GC 4544)): 64 µg/mL | MIC Staphylococcus aureus (GC 4545) (Staphylococcus sp.; Staphylococcus aureus (GC 4545)): 128 µg/mL | MIC Staphylococcus aureus-SMITH (GC 4543) (Staphylococcus sp.; Staphylococcus aureus-SMITH (GC 4543)): 128 µg/mL | MIC Staphylococcus haemolyticus (GC 4546) (Staphylococcus sp.; Staphylococcus haemolyticus (GC 4546)): 128 µg/mL | MIC Staphylococcus aureus (ATCC 29213) (Staphylococcus sp.; broth dilution, strain ATCC 29213): 128 µg/mL | MIC Staphylococcus aureus (GC 1131) (Staphylococcus sp.; broth dilution, strain GC 1131): 128 µg/mL | MIC Staphylococcus aureus (GC 3051) (Staphylococcus sp.; broth dilution, strain GC 3051): 128 µg/mL | MIC Staphylococcus aureus (GC 3053) (Staphylococcus sp.; broth dilution, strain GC 3053): 128 µg/mL | MIC Staphylococcus aureus (GC 4541) (Staphylococcus sp.; broth dilution, strain GC 4541): 128 µg/mL | MIC Staphylococcus aureus (GC 4542) (Staphylococcus sp.; broth dilution, strain GC 4542): 64 µg/mL | MIC Staphylococcus aureus-SMITH (GC 4543) (Staphylococcus sp.; broth dilution, strain GC 4543): 128 µg/mL | MIC Staphylococcus aureus (GC 4544) (Staphylococcus sp.; broth dilution, strain GC 4544): 64 µg/mL | MIC Staphylococcus aureus (GC 4545) (Staphylococcus sp.; broth dilution, strain GC 4545): 128 µg/mL | MIC Staphylococcus haemolyticus (GC 4546) (Staphylococcus sp.; broth dilution, strain GC 4546): 128 µg/mL | MIC Coagulase Negative Staphylococcus (GC 4547) (Staphylococcus sp.; broth dilution, strain GC 4547): 64 µg/mL | MIC Coagulase Negative Staphylococcus (GC 4548) (Staphylococcus sp.; broth dilution, strain GC 4548): 128 µg/mL | MIC Coagulase Negative Staphylococcus (GC 4549) (Staphylococcus sp.; broth dilution, strain GC 4549): 128 µg/mL | MIC Coagulase Negative Staphylococcus (GC 4551) (Staphylococcus sp.; broth dilution, strain GC 4551): 64 µg/mL | MIC Coagulase Negative Staphylococcus (GC 6257) (Staphylococcus sp.; broth dilution, strain GC 6257): 128 µg/mL | MIC Enterococcus avium (GC 4558) (Enterococcus sp.; Enterococcus avium (GC 4558)): 32 µg/mL | MIC Enterococcus faecalis (ATCC 29212) (Enterococcus sp.; Enterococcus faecalis (ATCC 29212)): 16 µg/mL | MIC Enterococcus faecalis (GC 2242) (Enterococcus sp.; Enterococcus faecalis (GC 2242)): 32 µg/mL | MIC Enterococcus faecalis (GC 2691) (Enterococcus sp.; Enterococcus faecalis (GC 2691)): 128 µg/mL | MIC Enterococcus faecalis (GC 3059) (Enterococcus sp.; Enterococcus faecalis (GC 3059)): 128 µg/mL | MIC Enterococcus faecalis (GC 4552) (Enterococcus sp.; Enterococcus faecalis (GC 4552)): 64 µg/mL | MIC Enterococcus faecalis (GC 4553) (Enterococcus sp.; Enterococcus faecalis (GC 4553)): 64 µg/mL | MIC Enterococcus faecalis (GC 4554) (Enterococcus sp.; Enterococcus faecalis (GC 4554)): 128 µg/mL | MIC Enterococcus faecalis (GC 6189) (Enterococcus sp.; Enterococcus faecalis (GC 6189)): 64 µg/mL | MIC Enterococcus faecium (GC 2243) (Enterococcus sp.; Enterococcus faecium (GC 2243)): 64 µg/mL | MIC Enterococcus faecium (GC 4556) (Enterococcus sp.; Enterococcus faecium (GC 4556)): 32 µg/mL | MIC Enterococcus faecium (GC 4557) (Enterococcus sp.; Enterococcus faecium (GC 4557)): 64 µg/mL | MIC Enterococcus faecalis (ATCC 29212) (Enterococcus sp.; broth dilution, strain ATCC 29212): 16 µg/mL | MIC Enterococcus faecalis (GC 2242) (Enterococcus sp.; broth dilution, strain GC 2242): 32 µg/mL | MIC Enterococcus faecium (GC 2243) (Enterococcus sp.; broth dilution, strain GC 2243): 64 µg/mL | MIC Enterococcus faecalis (GC 2691) (Enterococcus sp.; broth dilution, strain GC 2691): 128 µg/mL | MIC Enterococcus faecalis (GC 3059) (Enterococcus sp.; broth dilution, strain GC 3059): 128 µg/mL | MIC Enterococcus faecalis (GC 4552) (Enterococcus sp.; broth dilution, strain GC 4552): 64 µg/mL | MIC Enterococcus faecalis (GC 4553) (Enterococcus sp.; broth dilution, strain GC 4553): 64 µg/mL | MIC Enterococcus faecalis (GC 4554) (Enterococcus sp.; broth dilution, strain GC 4554): 128 µg/mL | MIC Enterococcus faecium (GC 4556) (Enterococcus sp.; broth dilution, strain GC 4556): 32 µg/mL | MIC Enterococcus faecium (GC 4557) (Enterococcus sp.; broth dilution, strain GC 4557): 64 µg/mL | MIC Enterococcus avium (GC 4558) (Enterococcus sp.; broth dilution, strain GC 4558): 32 µg/mL | MIC Enterococcus faecalis (GC 6189) (Enterococcus sp.; broth dilution, strain GC 6189): 64 µg/mL
